# Data: publication PMC4942689, “Deciphering the function of the CNGB1b subunit in olfactory CNG channels” (Scientific Reports, 2016)
# Experiments:
# [1] = target: T1, CNGA2TM:B1b (Rattus norvegicus, UniProt A0A8I5ZN27+Q00195, T539M); assay: Ligand binding, confocal patch-clamp fluorometry; set-up: key to Ligand binding to CNGB1b: +: ligand binding to the respective modulatory subunits was either observed or not; −: ligand binding to the respective modulatory subunits was either observed or not
# T1 construct: expressed in transfected cells; host or cells: Xenopus laevis oocytes (cRNA injection), excised patches
# Description: (§1) The channels to be studied were expressed in Xenopus oocytes. We first tested the subunit composition in our channels when coexpressing different combinations of subunits by single-channel recordings. For CNGA2:A4, CNGA2:B1b and CNGA2:A4:B1b channels we exclusively obtained the specific and easily distinguishable single-channel activity reported earlier when injecting respective amounts of RNA[7][13]. We therefore assumed that the channels formed had always the expected subunit composition. The specific binding of cyclic nucleotides and the activation of the CNG channels were measured in parallel by means of confocal patch-clamp fluorometry in excised patches, using fluorescent cyclic nucleotide derivatives. The method has been described previously.
# (§2) To study ligand binding to the CNGB1b subunit selectively, the binding domain of the CNGA2 subunits was disabled by either the point mutation R538E (red crosses in the cartoons) or T539M (blue crosses in the cartoons)[13][20]. […] To this end, CNGB1b was coexpressed with CNGA2RE.
# (§3) The ligand binding was measured in macropatches by patch-clamp fluorometry[41][42] combined with confocal microscopy. […] Recordings were performed with an LSM 510 or 710 confocal microscope (Zeiss, Jena, Germany) and were triggered by the ISO3 software (MFK, Niedernhausen, Germany). To distinguish between the fluorescence of the unbound ligands from that of the bound ligands, a second dye, DY647 (Dyomics, Jena, Germany), was added to the bath solution. The 543-nm and 633-nm lines of a He-Ne laser were used to excite fcAMP/fcGMP and DY647, respectively. The method of confocal patch-clamp fluorometry has been described in detail previously.
# [2] = target: T2, CNGA2RE:B1b (Rattus norvegicus, UniProt A0A8I5ZN27+Q00195, R538E); assay: Ligand binding, confocal patch-clamp fluorometry; set-up: key to Ligand binding to CNGB1b: +: ligand binding to the respective modulatory subunits was either observed or not; −: ligand binding to the respective modulatory subunits was either observed or not; details: 10 μM; construct CNGA2RE:B1b
# T2 construct: expressed in transfected cells; host or cells: Xenopus laevis oocytes (cRNA injection), excised patches
# Description: as §1, §2, §3
# T1 sequence (Q00195 whole entry T539M): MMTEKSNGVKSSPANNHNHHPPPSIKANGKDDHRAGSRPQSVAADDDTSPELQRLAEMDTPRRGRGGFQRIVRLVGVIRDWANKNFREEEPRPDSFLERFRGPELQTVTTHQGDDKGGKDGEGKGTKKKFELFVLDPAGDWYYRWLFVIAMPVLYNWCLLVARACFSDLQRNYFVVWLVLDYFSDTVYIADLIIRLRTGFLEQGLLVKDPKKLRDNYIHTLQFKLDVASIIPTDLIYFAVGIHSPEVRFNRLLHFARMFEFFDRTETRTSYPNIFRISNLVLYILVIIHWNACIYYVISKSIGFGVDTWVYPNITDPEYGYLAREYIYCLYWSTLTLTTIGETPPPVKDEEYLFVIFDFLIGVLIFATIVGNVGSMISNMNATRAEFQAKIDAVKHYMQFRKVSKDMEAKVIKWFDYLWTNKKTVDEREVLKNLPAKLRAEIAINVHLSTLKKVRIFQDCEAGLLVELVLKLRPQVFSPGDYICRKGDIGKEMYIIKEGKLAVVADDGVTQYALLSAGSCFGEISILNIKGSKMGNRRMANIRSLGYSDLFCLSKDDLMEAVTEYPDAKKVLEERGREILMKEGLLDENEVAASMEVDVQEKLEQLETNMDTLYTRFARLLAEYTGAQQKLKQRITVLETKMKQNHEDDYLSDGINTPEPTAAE
# T1 sequence (A0A8I5ZN27 1-858 isoform A0A8I5ZN27-2, stated change not applied): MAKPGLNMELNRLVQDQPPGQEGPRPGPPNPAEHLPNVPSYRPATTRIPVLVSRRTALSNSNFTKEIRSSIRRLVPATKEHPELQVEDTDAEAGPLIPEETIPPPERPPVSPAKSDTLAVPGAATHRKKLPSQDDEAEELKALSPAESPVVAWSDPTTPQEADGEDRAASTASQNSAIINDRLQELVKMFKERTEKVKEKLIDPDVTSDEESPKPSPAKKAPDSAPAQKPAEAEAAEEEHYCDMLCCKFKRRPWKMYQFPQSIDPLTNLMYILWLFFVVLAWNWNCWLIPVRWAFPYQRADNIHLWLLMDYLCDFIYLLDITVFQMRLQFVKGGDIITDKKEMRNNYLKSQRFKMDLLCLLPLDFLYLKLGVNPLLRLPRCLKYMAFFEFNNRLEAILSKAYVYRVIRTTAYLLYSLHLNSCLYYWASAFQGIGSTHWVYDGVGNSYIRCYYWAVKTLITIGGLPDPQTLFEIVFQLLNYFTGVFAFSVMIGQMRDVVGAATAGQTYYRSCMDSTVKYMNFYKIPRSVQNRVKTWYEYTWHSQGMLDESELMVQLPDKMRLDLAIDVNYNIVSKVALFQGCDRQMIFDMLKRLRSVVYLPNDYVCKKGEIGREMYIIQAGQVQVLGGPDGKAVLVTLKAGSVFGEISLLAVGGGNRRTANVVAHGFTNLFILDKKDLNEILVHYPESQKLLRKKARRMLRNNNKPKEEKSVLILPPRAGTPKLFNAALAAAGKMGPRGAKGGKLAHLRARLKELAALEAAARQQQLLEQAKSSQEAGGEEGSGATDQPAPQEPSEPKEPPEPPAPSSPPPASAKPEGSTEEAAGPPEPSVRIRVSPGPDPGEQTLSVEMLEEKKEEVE
# T2 sequence (Q00195 whole entry R538E): as the sequence (Q00195 whole entry T539M) above, with R538E, M539T counted along it
# T2 sequence (A0A8I5ZN27 1-858 isoform A0A8I5ZN27-2, stated change not applied): as the sequence (A0A8I5ZN27 1-858 isoform A0A8I5ZN27-2, stated change not applied) above
substance,measurement,setting,value
8-[DY-547]-AET-cGMP [fcGMP],binding to CNGB1b (in words),"[1]; 10 μM fcGMP, coexpressed with disabled CNGA2 (CNGA2TM)",does not bind
same,Ligand binding to CNGB1b,"[1]; 10 μM, construct CNGA2TM:B1b",−
same,Ligand binding to CNGB1b,[2],−
